This note sets out measurements from PubChem BioAssay AID623904 (Broad Institute, 2012).

Structures are written as SMILES. Several values for one entry are separate records, joined by “and”; a condition that tells them apart may be missing. Identical values can stand only once. Activity calls are given as the source filed them.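 Rule for the calls: active = growth inhibition with an AC50 at or below twice the top valid tested dose; inconclusive = flat curve at 30 to 70% inhibition, or poor fit; inactive = the rest, including growth increase.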 A value given as a limit tells only on which side of the number the result lay.

System in the first experiment: not listed separately
Nature of the experiment: antifungal activity against fermenting C. glabrata – glucose medium, OD600, powder samples, set 2, dose response (AID 623904). The following applies: Candida glabrata growth, glucose medium, OD600, 48 h; at 6 µM (top of the series).
Regarding `Cc1ccc(N2C(=S)N(C(=O)Oc3ccccc3)C(=O)C23CCCCC3)cc1`, the activity change, negative = inhibition is 2.19% (inactive).
As to `O=C1NC(=S)N(c2ccc(F)cc2)C12CCCCC2`, the activity change, negative = inhibition was 11% (inactive).
Same read-out and setting: the same measure for `Cc1ccc(N2CC(=O)NC2=S)cc1`: 2.6% (inactive); for `Cc1ccc(N2C(=S)N(C(=O)OCc3ccccc3)C(=O)C23CCCCC3)cc1`: 5.73% (inactive).
On to `CCCCN1C(=O)C2(CCCCC2)N(c2ccc(C)cc2)C1=S`, for which the activity change, negative = inhibition was 5.19% (inactive).
For `CCCCN1C(=O)N(c2ccc(C)cc2)C2(CCCCC2)C1=S`, the activity change, negative = inhibition is -6.75% (inactive).
On to `Cc1ccc(N2CC(=O)NC2=O)cc1`, for which the activity change, negative = inhibition was 9.85% (inactive).
On the same count and under the same terms, the same measure for `CC(C)N1C(=S)NC(=O)C12CCCCC2`: -10.3% (inactive).
Regarding `O=C1NC(=S)N(c2ccccc2)C12CCCCC2`, the activity change, negative = inhibition is 5.48% (inactive).
Take `CCOC(=O)N1C(=O)C2(CCCCC2)N(c2ccc(C(C)(C)C)cc2)C1=S`: the activity change, negative = inhibition is -18.2% (inactive).
For the molecule `Cc1ccc(N2C(=S)NC(=O)C23CCC3)cc1`, the activity change, negative = inhibition is 9.11% (inactive).
Same read-out and setting: the same measure for `CCOC(=O)N1C(=O)C2(CCCCC2)N(c2ccc(-c3ccccc3)cc2)C1=S`: -30.1% (inactive); for `CCOC(=O)N1C(=O)C(C)(C)N(c2ccc(C)cc2)C1=S`: -7.97% (inactive).
Same read-out and setting: the same measure for `CCCCN1C(=O)N(c2ccc(C)cc2)C2(CCCCC2)C1=O`: -27.1% (inactive); for `Cc1ccc(N2C(=S)NC(=O)C23CCCCC3)cc1`: -5.97% (inactive); for `O=C1NC(=S)NC12CCCCC2`: -24.5% (inactive).
With `Cc1ccc(N2C(=S)NC(=O)C23CCCC3)cc1`, the activity change, negative = inhibition was -25.3% (inactive).
Regarding `Cc1ccc(N2C(=S)NC(=O)C2(C)C)cc1`, the activity change, negative = inhibition was 46.6% (inactive).
On the same count and under the same terms, the same measure for `CCOC(=O)N1C(=O)C2(CCCCC2)N(C(C)C)C1=S`: 10.8% (inactive); for `Cc1ccc(N2C(=S)NC(=O)C23CCOCC3)cc1`: -7.64% (inactive).
Consider `Cc1ccc(N2C(=S)N(C)C(=O)C23CCCCC3)cc1`, for which the activity change, negative = inhibition was 2.67% (inactive) and 7.65% (inactive).
Same read-out and setting: the same measure for `CCOC(=O)N1C(=O)N(c2ccc(C)cc2)C2(CCCCC2)C1=O`: -17.3% (inactive).

The subject of another experiment is Candida glabrata growth, glucose medium, OD600, 48 h. The description is as above.
Conditions: not given
By AC50 is commonly meant the midpoint of the concentration-response curve, whichever way the signal moves. For the molecule `CCOC(=O)N1C(=O)C2(CCCCC2)N(c2ccc(C)cc2)C1=S`, the concentration at half-maximal activity (AC50) is 1.85 µM and 2.09 µM.
Still for that read-out and setting: the same measure for `CCOC(=O)N1C(=S)N(c2ccc(C)cc2)C2(CCCCC2)C1=NCc1ccccc1`: > 12 µM (inactive).
On the same count and under the same terms, the same measure for `CCOC(=O)N1C(=O)C2(CCOCC2)N(c2ccc(C)cc2)C1=S`: > 12 µM (inactive); for `CCCC(=O)N1C(=O)C2(CCCCC2)N(c2ccc(C)cc2)C1=S`: 1.48 µM; for `CC1/C=C/C=C\C=C\C=C\C=C\C=C\C=C\C(O[C@H]2OC(C)C(O)C(N)C2O)CC2OC(O)(CC(O)CC(O)C(O)CCC(O)CC(O)CC(=O)OC(C)C(C)C1O)CC(O)C2C(=O)O` (stereo partly drawn): 0.206 µM.
On the same count and under the same terms, the same measure for `CCOC(=O)N1C(=O)C2(CCCC2)N(c2ccc(C)cc2)C1=S`: > 12 µM (inactive); for `CCOC(=O)N1C(=O)C2(CCCCC2)N(c2ccc(F)cc2)C1=S`: 2.34 µM.
Consider `Cc1ccc(N2C(=O)N(C)C(=O)C23CCCCC3)cc1`, for which the AC50 was > 12 µM (inactive).
On the same count and under the same terms, the same measure for `CCOC(=O)N1C(=O)C2(CCC2)N(c2ccc(C)cc2)C1=S`: > 12 µM (inactive); for `Cc1ccc(N2C(=S)N(S(C)(=O)=O)C(=O)C23CCCCC3)cc1`: > 12 µM (inactive); for `CCOC(=O)N1C(=S)N(c2ccc(C)cc2)C(=O)C12CCCCC2`: > 12 µM (inactive).
Take `CCOC(=O)N1C(=O)C2(CCCCC2)NC1=S`: the AC50 is > 12 µM (inactive).
Regarding `CCOC(=O)N1C(=O)C2(CCCCC2)N(c2ccc(C(F)(F)F)cc2)C1=S`, the AC50 was 4.15 µM.
Regarding `CCOC(=O)N1C(=O)C2(CCCCC2)N(c2ccc(C#N)cc2)C1=S`, the AC50 is 3.29 µM.
In the case of `CCOC(=O)N1C(=O)C2(CCCCC2)N(c2cccc(C)c2)C1=S`, the concentration at half-maximal activity (AC50) is 2.34 µM.
On the same count and under the same terms, the same measure for `CCOC(=O)N1C(=S)NC(=O)C12CCCCC2`: > 12 µM (inactive); for `COC(=O)N1C(=O)C2(CCCCC2)N(c2ccc(C)cc2)C1=S`: 5.93 µM.
`Cc1ccc(N2C(=O)C3(CCCCC3)NC2=S)cc1`: the AC50 is > 12 µM (inactive).
Same read-out and setting: the same measure for `Cc1ccc(N2C(=O)NC(=O)C23CCCCC3)cc1`: > 12 µM (inactive).
As to `CCOC(=O)N1C(=O)C2(CCCCC2)N(c2ccccc2)C1=S`, the concentration at half-maximal activity (AC50) is 2.04 µM.
For the molecule `Cc1ccc(N2C(=O)C(=O)NC2=S)cc1`, the AC50 was > 12 µM (inactive).
